Assay results reported in patent US4113736A, “2-Phenyl-indole derivatives” (priority 1975, dated 1978).
Read-outs that look alike come from different tables or passages of the source. Each block holds one compound with its values, some of them ahead of it.

Tests used:
[1] = tested on: mice; settings: known stabilizer, in words; cited from earlier work
[2] = known stabilizer, in words; cited from earlier work
[3] = Static thermostability of stabilized polyvinyl chloride resin, GARDNER Scale comparator, 185° C.; settings: 185° C. and 210° C. trials, in words
Procedure: The stabilizing power of the substances of the invention was studied by determining the static thermostability of the following resin: […]
Polyvinyl chloride resin
Calcium-12-hydroxy-stearate
Stabilizer from 0.1 to 1
SL 2016 represents a solution of zinc-2-ethyl-hexanoate in a mixture of aromatic hydrocarbons boiling between 158° and 184° C.
The different ingredients were mixed and calendered in a mixer of which the cylinders were heated to 160° C.
The rigid sheets so obtained were then heated in a oven to a temperature of 185° or 210° C., until incipient carbonization.
A oven with a rotating drum, ventilated and equipped with a thermostat was used for this operation.
In the trials described hereunder the behaviour of the sheets containing one of the stabilizers to be tested was compared to that of sheets of the same formula but containing 2-phenyl-indole as stabilizer.
Comparison can be made by one of two methods, namely:
(1) The coloration of the sheets, of which samples were removed from the oven at fixed intervals, was compared to a standard scale of coloration, known as the GARDNER Scale, and expressed in terms of the reference figures of the GARDNER Scale.
Comparisons were made with a GARDNER Scale comparator which contains 18 filters of colored glass and which offers the possibility of observing simultaneously by transparency and in a limited field of view both the sheet and the reference filters.
It may happen that the color of the sheets is far removed from that of the GARDNER Scale, in which case comparison is difficult, if not impossible.
The following results were obtained at a temperature of 185° C., using the method described above: […]

[4] = water; for Extractibility compared with 2-phenyl-indole: in words
Procedure: This study was carried out in accordance with the requirements of the Food and Drug Administration (U.S.A.).
The extractions were performed in semi-rigid bottles, prepared with the resin of which the composition is given below, and with the following solvents: water, ethanol-water 50/50, an aqueous solution of acetic acid (3%) and finally heptane.
The ratio of the volume of solvent to the surface of plastic material exposed to extraction was about 1 to 100ml of solvent, taking into account the geometric characteristics of the bottles.
Heating A thermostated oven for the non-inflammable
solvents (water and acetic acid).
A thermostated water-bath for the inflammable
solvents (alcohol and heptane).
The quantity of stabilizer extracted was determined by colorimetric assay using p-dimethylaminobenzaldehyde, in accordance with the method described in Analytical Chemistry 36,425-26 (1964).
Results are expressed in μg of stabilizer extracted per litre of extraction solvent or, which is the same per 1000cm^2 of surface extracted.

[5] = tested on: mice; assay: Acute toxicity (LD50 / LDO), oral route, mice; type: in vivo
Procedure: (§1) The toxicity of the stabilizers of the invention was studied first and the satisfactory results obtained were such as to justify continuation of the investigation.
(§2) The acute toxicity (LD50) of the stabilizers listed below was measured by determining the dose of substance which provoked the death of 50% of the animals treated.
(§3) A gummy suspension of the substance under study was administered by oral route to groups of at least ten mice and the following results were observed: […]

[6] = Acute toxicity (LD50 / LDO), oral route, mice; type: in vivo; settings: mouse, in vivo
Procedure: as §1, §2, §3

SMILES: c1ccc(-c2cc3ccccc3[nH]2)cc1 [2-phenyl-indole]
- Toxicity [1]: low toxicity
- Stabilizing power [2]: good stabilizing power

- Stabilizing power compared with 2-phenyl-indole [3]: superior to 2-phenyl-indole
SMILES: COc1ccc2cc(-c3ccccc3)[nH]c2c1 [Stabilizer 1, 2-phenyl-6-methoxy-indole]

- Stabilizing power compared with 2-phenyl-indole [3]: superior to 2-phenyl-indole
- Extractibility, times less than 2-phenyl-indole [4]: at least 10 times
- Extractibility compared with 2-phenyl-indole [4]: markedly superior to 2-phenyl-indole
SMILES: Oc1ccc2cc(-c3ccccc3)[nH]c2c1 [Stabilizer 2, 2-phenyl-6-hydroxy-indole]

SMILES: CCCCCCCCCCCCOc1ccc2[nH]c(-c3ccccc3)cc2c1 [Stabilizer 3, 2-phenyl-5-dodecyloxy-indole]
- Stabilizing power compared with 2-phenyl-indole [3]: superior to 2-phenyl-indole
- Extractibility compared with 2-phenyl-indole ([4]; aqueous ethanol and heptane): markedly less extractible than 2-phenyl-indole
- Toxic symptoms ([5]; LD50 table): none
- LD50 [6]: > 5000 mg/kg

SMILES: COc1ccc(-c2cc3cc(C)ccc3[nH]2)cc1 [Stabilizer 4, 2-(4'-methoxy-phenyl)-5-methyl-indole]
- Stabilizing power compared with 2-phenyl-indole [3]: superior to 2-phenyl-indole
- LDO (maximal dose which does not provoke any death) [5]: > 500 mg/kg
- Toxic symptoms ([5]; LDO table): none

- Stabilizing power compared with 2-phenyl-indole [3]: superior to 2-phenyl-indole
SMILES: COc1ccc(-c2cc3cccc(C)c3[nH]2)cc1 [Stabilizer 5, 2-(4'-methoxy-phenyl)-7-methyl-indole]

SMILES: COc1ccc(-c2cc3ccc(C)cc3[nH]2)cc1 [Stabilizer 6, 2-(4'-methoxy-phenyl)-6-methyl-indole]
- Stabilizing power compared with 2-phenyl-indole [3]: superior to 2-phenyl-indole
- Toxic symptoms ([5]; LD50 table): none
- LD50 [6]: > 3000 mg/kg

- Stabilizing power compared with 2-phenyl-indole [3]: superior to 2-phenyl-indole
SMILES: COc1cc(-c2cc3cccc(C)c3[nH]2)ccc1O [Stabilizer 8, 2-(3'-methoxy-4'-hydroxy-phenyl)-7-methyl-indole]

SMILES: CCCCCCCCCCCCOc1ccc(-c2cc3ccc(C)cc3[nH]2)cc1 [Stabilizer 12, 2-(4'-dodecyloxy-phenyl)-6-methyl-indole]
- Stabilizing power compared with 2-phenyl-indole [3]: superior to 2-phenyl-indole
- Extractibility compared with 2-phenyl-indole ([4]; aqueous ethanol and heptane): markedly less extractible than 2-phenyl-indole

SMILES: CCCCCCCCCCCCOc1ccc(-c2cc3ccc(C)cc3[nH]2)cc1 [Stabilizer 12]
- Toxic symptoms ([5]; LD50 table): none
- LD50 [6]: > 3000 mg/kg

- Stabilizing power compared with 2-phenyl-indole [3]: superior to 2-phenyl-indole
SMILES: COc1cc(-c2cc3ccc(C)cc3[nH]2)ccc1O [Stabilizer 13, 2(3'-methoxy-4'-hydroxy-phenyl)6-methyl-indole]

SMILES: CCCCCCCCCCCCOc1ccc(-c2cc3cccc(C)c3[nH]2)cc1C [Stabilizer 14, 2-(3'-methyl-4'-dodecyloxy-phenyl)-7-methyl-indole]
- Extractibility compared with 2-phenyl-indole ([4]; aqueous ethanol and heptane): markedly less extractible than 2-phenyl-indole

- Stabilizing power compared with 2-phenyl-indole [3]: superior to 2-phenyl-indole
SMILES: COc1cc(-c2cc3cc(C)ccc3[nH]2)ccc1O [Stabilizer 15, 2(3'-methoxy-4'-hydroxy-phenyl)-5-methyl-indole]

SMILES: Oc1ccc2[nH]c(-c3ccccc3)cc2c1 [Stabilizer 19, 2-phenyl-5-hydroxy-indole]
- Stabilizing power compared with 2-phenyl-indole [3]: superior to 2-phenyl-indole

SMILES: Oc1ccc2[nH]c(-c3ccccc3)cc2c1 [Stabilizer 19]
- LDO (maximal dose which does not provoke any death) [5]: > 500 mg/kg
- Toxic symptoms ([5]; LDO table): none
